Measurements published in patent publication US12084472B2 (Ardelyx, Inc., priority 2015, dated 2024).
Counter-ions that a name gives are not always drawn.

What follows are compounds tested against T1, human TGR5 (Homo sapiens, UniProt Q8TDU6) (assay: Cell-based TGR5 assay (cAMP generation, HTRF)). Conditions: HEK293 cells stably transfected with human TGR5; cAMP by HTRF; 30 minutes at 37° C.; read-out: pEC50 Human TGR5 (converted).
T1 construct: expressed in transfected cells; host or cells: HEK293
T1 sequence (Q8TDU6 1-330): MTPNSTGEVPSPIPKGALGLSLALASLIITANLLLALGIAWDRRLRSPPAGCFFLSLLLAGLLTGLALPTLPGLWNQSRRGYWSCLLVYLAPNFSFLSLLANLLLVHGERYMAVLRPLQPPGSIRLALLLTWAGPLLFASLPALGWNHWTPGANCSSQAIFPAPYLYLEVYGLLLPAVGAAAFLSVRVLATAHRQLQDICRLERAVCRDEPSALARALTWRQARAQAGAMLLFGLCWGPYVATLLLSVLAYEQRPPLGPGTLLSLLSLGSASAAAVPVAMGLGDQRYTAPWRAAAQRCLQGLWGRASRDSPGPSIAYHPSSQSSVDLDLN
In short: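 Read-out was HTRF detection of cAMP, converted to concentration via a standard curve and fitted (3-parameter logistic) for pEC50 and maximal response. Agonist stimulation used HEK293 cells stably transfected with human TGR5, incubated 30 min at 37° C in IBMX-containing buffer at 0.05 nM to 10 μM compound.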
Compound `Cc1cc(COC2(c3cnccc3-c3ccccc3OC3CC3)CC2)c(Cl)cc1CCCCNC(=O)N(CCO)C[C@H](O)[C@@H](O)[C@H](O)[C@H](O)CO` [Compound I-107, 1-{4-[5-chloro-4-({1-[4-(2-cyclopropoxyphenyl)pyridin-3-yl]cyclopropoxy}methyl)-2-methylphenyl]butyl}-3-(2-hydroxyethyl)-3-[(2S,3R,4R,5R)-2,3,4,5,6-pentahydroxyhexyl]urea] has an EC50 of under 100 nM. In the case of `CSc1ccccc1-c1ccncc1C1(OCc2cc(Cl)ccc2Cl)CC1` [Compound I-739, 3-(1-((2,5-dichlorobenzyl)oxy)cyclopropyl)-4-(2-(methylthio)phenyl)pyridine], the EC50 is reported as 126 to 1000 nM. Compound `Clc1ccc(Cl)c(CNC2(c3cnccc3-c3ccccc3OC3COC3)CC2)c1` [Compound I-19, N-[(2,5-dichlorophenyl)methyl]-1-{4-[2-(oxetan-3-yloxy)phenyl]pyridin-3-yl}cyclopropan-1-amine] has an EC50 of under 100 nM. With `O=C([C@@H](O)[C@@H](O)[C@H](O)[C@@H](O)CO)N(CCCCc1cc(Cl)c(COC2(c3cnccc3-c3ccccc3OC3CC3)CC2)cc1Cl)CCOCCO` [Compound I-85] the EC50 was under 100 nM. `CN(CCCCNC(=O)NC[C@H](O)[C@@H](O)[C@H](O)[C@H](O)CO)S(=O)(=O)c1cc(CNC2(c3cnccc3-c3ccccc3OC3CC3)CC2)c(Cl)cc1Cl` [Compound I-392, 1-[4-(N-methyl[2,4-dichloro-5-[([1-[4-(2-cyclopropoxyphenyl)pyridin-3-yl]cyclopropyl]amino)methyl]benzene]sulfonamido)butyl]-3-[(2S,3R,4R,5R)-2,3,4,5,6-pentahydroxyhexyl]urea] was tested, and the EC50 was under 100 nM. Compound `CCN(CCCCc1cc(Cl)c(COC2(c3cnccc3-c3ccccc3OC3CC3)CC2)cc1Cl)C(=O)[C@@H](O)[C@@H](O)[C@H](O)[C@@H](O)CO` (stereo in doubt) [Compound I-209, (2S,3S,4R,5S)-N-{4-[2,5-dichloro-4-({1-[4-(2-cyclopropoxyphenyl)pyridin-3-yl]cyclopropoxy}methyl)phenyl]butyl}-N-ethyl-2,3,4,5,6-pentahydroxyhexanamide] has an EC50 of under 100 nM. `CN(C[C@H](O)[C@@H](O)[C@H](O)[C@H](O)CO)S(=O)(=O)c1ccc(Cl)c(COC2(c3cnccc3-c3ccccc3OC3CC3)CC2)c1` [Compound I-398, (2S,3R,4R,5R)-S-[4-chloro-3-({1-[4-(2-cyclopropoxyphenyl)pyridin-3-yl]cyclopropoxy}methyl)phenyl]-2,3,4,5,6-pentahydroxy-N-methylhexane-1-sulfonamido] was tested, and the EC50 was under 100 nM. `O=C(NCCOCC[S+]([O-])c1ccc(Cl)c(COC2(c3cnccc3-c3ccccc3OC3CC3)CC2)c1)N[C@@H](CO)[C@@H](O)[C@H](O)[C@H](O)CO` (stereo partly drawn) [Compound I-644, 1-(2-{2-[4-chloro-3-({1-[4-(2-cyclopropoxyphenyl)pyridin-3-yl]cyclopropoxy}methyl)benzenesulfinyl]ethoxy}ethyl)-3-[(2S,3R,4S,5R)-1,3,4,5,6-pentahydroxyhexan-2-yl]urea] gave an EC50 of under 100 nM. `CC(=O)N(CCCCSc1ccc(Cl)c(CNC2(c3cnccc3-c3ccccc3OC3CC3)CC2)c1)C[C@H](O)[C@@H](O)[C@H](O)[C@H](O)CO` [Compound I-503, N-[4-({4-chloro-3-[({1-[4-(2-cyclopropoxyphenyl)pyridin-3-yl]cyclopropyl}amino)methyl]phenyl}sulfanyl)butyl]-N-[(2S,3R,4R,5R)-2,3,4,5,6-pentahydroxyhexyl]acetamide] was tested, and the EC50 was under 100 nM. With `CN(CCSc1ccc(Cl)c(CNC2(c3cnccc3-c3ccccc3OC3CC3)CC2)c1)C(=O)[C@@H](O)[C@@H](O)[C@H](O)[C@@H](O)CO` [Compound I-542, (2S,3S,4R,5S)-N-[2-({4-chloro-3-[({1-[4-(2-cyclopropoxyphenyl)pyridin-3-yl]cyclopropyl}amino)methyl]phenyl}sulfanyl)ethyl]-2,3,4,5,6-pentahydroxy-N-methylhexanamide] the EC50 was under 100 nM. For `O=S(=O)(c1ccc(Cl)c(COC2(c3cnccc3-c3ccccc3OC3CC3)CC2)c1)N1CCCCC1` [Compound I-396, 3-(1-{[2-chloro-5-(piperidine-1-sulfonyl)phenyl]methoxy}cyclopropyl)-4-(2-cyclopropoxyphenyl)pyridine], the EC50 was under 100 nM. For `O=C(CCC1CCN(S(=O)(=O)c2ccc(Cl)c(COC3(c4cnccc4-c4ccccc4OC4CC4)CC3)c2)C1)NC[C@H](O)[C@@H](O)[C@H](O)[C@H](O)CO` (stereo partly drawn) [Compound I-451, 3-{1-[4-chloro-3-({-[4-(2-cyclopropoxyphenyl)pyridin-3-yl]cyclopropoxy}methyl)benzenesulfonyl]pyrrolidin-3-yl}-N-[(2S,3R,4R,5R)-2,3,4,5,6-pentahydroxyhexyl]propanamide], the EC50 was under 100 nM. `Cc1cnc(SCCCC(=O)NC[C@H](O)[C@@H](O)[C@H](O)[C@H](O)CO)nc1CNC1(c2cnccc2-c2ccccc2OC2CC2)CC1` [Compound I-655, 4-({4-[({1-[4-(2-cyclopropoxyphenyl)pyridin-3-yl]cyclopropyl}amino)methyl]-5-methylpyrimidin-2-yl}sulfanyl)-N-[(2S,3R,4R,5R)-2,3,4,5,6-pentahydroxyhexyl]butanamide] showed an EC50 of 12600 to 50100 nM. `O=C(NCCCCCSc1ccc(Cl)c(CNC2(c3cnccc3-c3ccccc3OC3CC3)CC2)c1)NC[C@H](O)[C@@H](O)[C@H](O)[C@H](O)CO` [Compound I-494, 1-[5-([4-Chloro-3-[([1-[4-(2-cyclopropoxyphenyl)pyridin-3-yl]cyclopropyl]amino)methyl]phenyl]sulfanyl)pentyl]-3-[(2S,3R,4R,5R)-2,3,4,5,6-pentahydroxyhexyl]urea] gave an EC50 of under 100 nM. Work on `O=C(O)CNC(=O)N(CCCCc1cc(Cl)c(COC2(c3cnccc3-c3ccccc3OC3CC3)CC2)cc1Cl)C[C@H](O)[C@@H](O)[C@H](O)[C@H](O)CO` (stereo in doubt) [Compound I-197, 2-[({4-[2,5-dichloro-4-({1-[4-(2-cyclopropoxyphenyl)pyridin-3-yl]cyclopropoxy}methyl)phenyl]butyl}[(2S,3R,4R,5R)-2,3,4,5,6-pentahydroxyhexyl]carbamoyl)amino]acetic acid] yielded an EC50 of 126 to 1000 nM. Compound `CC(CCCN(CCOCCO)C(=O)[C@@H](O)[C@@H](O)[C@H](O)[C@@H](O)CO)c1ccc(Cl)c(CNC2(c3cnccc3-c3ccccc3OC3CC3)CC2)c1` (stereo partly drawn) [Compound I-286, (2S,3S,4R,5S)-N-(4-{4-chloro-3-[({1-[4-(2-cyclopropoxyphenyl)pyridin-3-yl]cyclopropyl}amino)methyl]phenyl}pentyl)-2,3,4,5,6-pentahydroxy-N-[2-(2-hydroxyethoxy)ethyl]hexanamide] has an EC50 of under 100 nM. Work on `CC(=O)N(CCCSc1ccc(Cl)c(CNC2(c3cnccc3-c3ccccc3OC3CC3)CC2)c1)C[C@H](O)[C@@H](O)[C@H](O)[C@H](O)CO` [Compound I-502, N-[3-({4-chloro-3-[({1-[4-(2-cyclopropoxyphenyl)pyridin-3-yl]cyclopropyl}amino)methyl]phenyl}sulfanyl)propyl]-N-[(2S,3R,4R,5R)-2,3,4,5,6-pentahydroxyhexyl]acetamide] yielded an EC50 of under 100 nM. `O=C(CCCCc1cc(Cl)c(COC2(c3cnccc3-c3ccccc3OC3CC3)CC2)cc1Cl)NCC1O[C@H](CO)[C@@H](O)[C@H](O)[C@H]1O` (stereo partly drawn) [Compound I-104, 5-[2,5-dichloro-4-({1-[4-(2-cyclopropoxyphenyl)pyridin-3-yl]cyclopropoxy}methyl)phenyl]-N-{[(3R,4R,5S,6R)-3,4,5-trihydroxy-6-(hydroxymethyl)oxan-2-yl]methyl}pentanamide] showed an EC50 of under 100 nM. `CC(=O)N1C[C@@H]2C[C@H]1CN2S(=O)(=O)c1ccc(Cl)c(COC2(c3cnccc3-c3ccccc3OC3CC3)CC2)c1` [Compound I-780, 1-((1S,4S)-5-((4-chloro-3-((1-(4-(2-cyclopropoxyphenyl)pyridin-3-yl)cyclopropoxy)methyl)phenyl)sulfonyl)-2,5-diazabicyclo[2.2.1]heptan-2-yl)ethan-1-one] was tested, and the EC50 was 126 to 1000 nM. `CC(CCCC(=O)NCCN1CCN(CC(=O)NC[C@H](O)[C@@H](O)[C@H](O)[C@H](O)CO)CC1)c1ccc(Cl)c(CNC2(c3cnccc3-c3ccccc3OC3CC3)CC2)c1` (stereo partly drawn) [Compound I-324, 5-{4-chloro-3-[({1-[4-(2-cyclopropoxyphenyl)pyridin-3-yl]cyclopropyl}amino)methyl]phenyl}-N-{2-[4-({[(2S,3R,4R,5R)-2,3,4,5,6-pentahydroxyhexyl]carbamoyl}methyl)piperazin-1-yl]ethyl}hexanamide] was tested, and the EC50 was under 100 nM. Compound `O=C(NCCCCCc1cc(Cl)c(CNC2(c3cnccc3-c3ccccc3OC3CC3)CC2)cc1Cl)NC[C@H](O)[C@@H](O)[C@H](O)[C@H](O)CO` [Compound I-60, 1-(5-[2,5-dichloro-4-[([1-[4-(2-cyclopropoxyphenyl)pyridin-3-yl]cyclopropyl]amino)methyl]phenyl]pentyl)-3-[(2S,3R,4R,5R)-2,3,4,5,6-pentahydroxyhexyl]urea hydrochloride] has an EC50 of under 100 nM. Work on `COCCCN(CCCCc1cc(Cl)c(COC2(c3cnccc3-c3ccccc3OC3CC3)CC2)cc1Cl)C(=O)[C@@H](O)[C@@H](O)[C@H](O)[C@@H](O)CO` [Compound I-212, (2S,3S,4R,5S)-N-{4-[2,5-dichloro-4-({1-[4-(2-cyclopropoxyphenyl)pyridin-3-yl]cyclopropoxy}methyl)phenyl]butyl}-2,3,4,5,6-pentahydroxy-N-(3-methoxypropyl)hexanamide] yielded an EC50 of under 100 nM.
